“Also recorded” adds a separate entry of the source.

Data set [1] relates to 1321N1 astrocytoma cells. Description: [Ca2+]i response before and after UV uncaging, fluo-3. It counts as cell-based. The procedure:
(b) Same experiment as (a) except done in Ca^2+ free medium (DPBS, O Ca^2+, 0.5 mM EGTA). UV exposure of the cells treated with IP3 -CPM still gave the same response, showing that the [Ca^2+ ]i increase resulted from the release of Ca^2+ from internal stores. […] The cells were loaded with fluo-3/AM. During the experiment the cells were bathed in HBS buffered with 20 mM Hepes at pH 7.4 and supplemented with 2 g/L glucose.
The [Ca^2+ ]i was monitored using the calcium indicator fluo-3 rather than fura-2 to keep the excitation wavelength of the indicator (490 nm) far from the uncaging wavelength (360 nm) of DMNB group. […] Compared to the photolyzing set-up (direct illumination by a hand mercury lamp) used for the IP3 -binding assay, the optical throughput from the source lamp to the specimen is much higher in a microscope, so 10 seconds (as opposed to 2 hours in IP3 binding assay) of photolysis was sufficient to produce enough IP3 to elicit [Ca^2+ ]i increase. The same amount of UV alone had no effect at all on [Ca^2+ ]i in cells not treated with IP3 -CPM. After recovering from uncaging of IP3 -CPM, the cells responded to subsequent carbachol and thapsigargin stimulation normally.
This confirmed that the [Ca^2+ ]i increase due to uncaging of IP3 -CPM resulted from internal Ca^2+ release, which was consistent with the normal mechanism of IP3 action.

Data set [2] deals with P388D1 macrophage-like cells. The data set is described as above. It counts as cell-based. Particulars: for [Ca2+]i after UV (360 nm, 10 s): 20 μM. The procedure:
The cells were loaded with fluo-3/AM. During the experiment the cells were bathed in HBS buffered with 20 mM Hepes at pH 7.4 and supplemented with 2 g/L glucose.
Another example was carried out in P388D1 macrophage-like cells.
Studies by Asmis et al. (92) have shown that, in P388D1 macrophage-like cells, PAF stimulated PGE2 production is mediated through two separate signals: IP3 induced [Ca^2+ ]i increase and another unidentified signal. IP3 -CPM might serve as a new tool for detailed study of PGE2 formation and AA release in relation to IP3 and [Ca^2+ ]i in these cells. One of the major advantages of using permeant IP3 derivatives is that experiments can be easily carried out in a population of cells, which is required for the measurement of AA release and PGE2 formation.

For data set [3], the system named is human embryonic kidney cells (HEK cells). Nature of the data set: [Ca2+]i response on flash photolysis of loaded cells. It counts as cell-based. The protocol: In human embryonic kidney cells (HEK cells), the extracellular IP3 -CPM was washed away after the cells had been loaded with 50 μM of IP3 -CPM for 20 minutes. […] Cells in the same dish which had not been exposed to UV light were kept in the dark for over 6 hours. […] However, pretreatment of IP3 -CPM with acetic acid will unmask the 3-hydroxyl and enable the intracellular phosphorylation of delivered IP3.

Another data set in a line: Chemical stability. It counts as physicochemical.
A further data set in a line: Membrane permeability. It counts as in vitro ADME.
The subject of data set [4] is 1321N1 astrocytoma cells. Nature of the data set: [Ca2+]i response before and after UV uncaging, fluo-3. The format is cell-based. Particulars: with extracellular Ca2+.
Setting [5] is: 20 μM extracellular, about/over 5 min.

Regarding `CCC(=O)OCOP(=O)(OCOC(=O)CC)O[C@@H]1[C@@H](OCc2cc(OC)c(OC)cc2[N+](=O)[O-])[C@H](OP(=O)(OCOC(=O)CC)OCOC(=O)CC)[C@@H]2OC(OC)O[C@@H]2[C@H]1OP(=O)(OCOC(=O)CC)OCOC(=O)CC` (stereo partly drawn) [IP3 -CPM, D-2,3-O-methoxymethylene-6-O-(4,5-dimethoxy-2-nitrobenzyl)-myo-Inositol 1,4,5-trisphosphate hexakis(propionyloxymethyl)ester], the “[Ca2+]i before UV” value (in the data set on 1321N1 astrocytoma cells [1] (setting [5]); in data set [2] (setting [5])) was “no effect on [Ca^2+ ]i” in each case. Further, the “[Ca2+]i after UV (360 nm, 10 s)” value in the data set with 1321N1 astrocytoma cells [1] (20 μM, Ca2+ free medium (0.5 mM EGTA), listed as IP3 -CPM (V-1)) was “same response”; in data set [2], “released a fair amount of Ca^2+ from internal stores”; in data set [2] (listed as IP3 -CPM (V-1)) it was “big [Ca^2+ ]i increase”; with 1321N1 astrocytoma cells [4] (20 μM), “almost saturating [Ca^2+ ]i increase”. Moreover, in the data set with 1321N1 astrocytoma cells [1] (1321N1 astrocytoma cells), the “extracellular concentration eliciting maximal Ca2+ release upon uncaging” value was 10^-6 to 10^-5 M. In addition, the “[Ca2+]i time course after uncaging” value in the data set on 1321N1 astrocytoma cells [1] (Ca2+ free medium) is given as “soon went back to the resting level”; in data set [2], “went back to the basal level in a short time”; with 1321N1 astrocytoma cells [4], “remained elevated above the resting level”. The “[Ca2+]i on photolysis (1 ms flash)” value in data set [3] (loaded 50 μM, 20 min, washed) is “transient increase in [Ca^2+ ]i”. For the same molecule, in data set [3] (loaded 50 μM, 20 min, washed), the “persistence of [Ca2+]i response to repeated flashes” value is reported as “persisted for up to a dozen repetitions”. Further, the “[Ca2+]i on photolysis after dark storage” value in data set [3] (over 6 hours in the dark after loading) is “[Ca^2+ ]i increases similar to those obtained immediately after being loaded; also recorded: full-scale [Ca^2+ ]i increases”. Further, in “Chemical stability”, the “chemical stability vs commercially available caged IP3” value is on record as “chemically more stable”. The “membrane permeability (in words)” value in the data set “Membrane permeability” is on record as “crossed the cell membrane”.

Values taken from US5866548A, “Caged membrane-permeant inositol phosphates” (priority 1996, dated 1999).
